{
  "source": "paper PMC11318101",
  "about": "“Fragment-Based Screen of SARS-CoV-2 Papain-like Protease (PL^pro)” (ACS Medicinal Chemistry Letters, 2024)",
  "data": [
    {"target": "SARS-CoV-2 PLPro (full-length, intact C111) (Severe acute respiratory syndrome coronavirus 2, UniProt P0DTD1, C1833S)", "format": "biochemical", "units": {"inhibition at 1 mM": "%"}, "values": [
      {"smiles": "Cn1ncc2c(Nc3ccccc3Cl)ncnc21", "note": "[Fragment 7]", "inhibition at 1 mM": 30},
      {"smiles": "CC(C)c1cc(O)n2ncc(-c3ccccc3)c2n1", "note": "[Fragment 8]", "inhibition at 1 mM": 62},
      {"smiles": "Cc1cc(Nc2ccccc2C)n2ncnc2n1", "note": "[Fragment 9]", "inhibition at 1 mM": 5},
      {"smiles": "Cc1ccc(Nc2cc(C)nc3nncn23)c(C)c1", "note": "[Fragment 11]", "inhibition at 1 mM": 2}
    ]}
  ]
}
